Data reported in patent US20090270359A1, “SUBSTITUTED PYRAZOLE DERIVATIVES” (TAKEDA PHARMACEUTICAL COMPANY LIMITED, priority 2007, published 2009).
Changes are numbered by the printed parent chain.

What was measured:
[1] = system: Human prostate cancer cells LNCaP-FGC; assay: Prostate specific antigen (PSA) production inhibition test in prostate cancer cells; type: cell-based; conditions: compound 1 μM, testosterone 0.1 ng/m, PSA in culture supernatant after 3 days by ELISA, testosterone non-addition group 100%, addition group 0%; for inhibition at 1 µM: Homo sapiens, 72 h, read-out: Inhibitory rate (%) at 1 μM (PSA production suppression rate)
Experimental: Human prostate cancer cells LNCaP-FGC were plated in a 24 well plate at 40000 cells/1000 μL/well, and testosterone (final concentration 0.1 ng/m) and the compound (1 μM) were added the next day. The concentration of PSA in the culture supernatant after 3 days from the addition was measured by ELISA, and the PSA production suppression rate was calculated with the testosterone non-addition group as 100% and the testosterone addition group as 0%.

[2] = biological target: T1, LNCaP type mutant androgen receptor (AR) (Homo sapiens, UniProt P10275, T878A); assay: AR-binding inhibition test, LNCaP type (radio-labeled Mibolerone displacement); conditions: compound 1 μM; 3 nM radio-labeled Mibolerone; 4° C., 3 hours; dextran/charcoal method; read-out: Inhibitory rate (%) at 1 μM, LNCaP type
T1 sequence (P10275 1-920 T878A): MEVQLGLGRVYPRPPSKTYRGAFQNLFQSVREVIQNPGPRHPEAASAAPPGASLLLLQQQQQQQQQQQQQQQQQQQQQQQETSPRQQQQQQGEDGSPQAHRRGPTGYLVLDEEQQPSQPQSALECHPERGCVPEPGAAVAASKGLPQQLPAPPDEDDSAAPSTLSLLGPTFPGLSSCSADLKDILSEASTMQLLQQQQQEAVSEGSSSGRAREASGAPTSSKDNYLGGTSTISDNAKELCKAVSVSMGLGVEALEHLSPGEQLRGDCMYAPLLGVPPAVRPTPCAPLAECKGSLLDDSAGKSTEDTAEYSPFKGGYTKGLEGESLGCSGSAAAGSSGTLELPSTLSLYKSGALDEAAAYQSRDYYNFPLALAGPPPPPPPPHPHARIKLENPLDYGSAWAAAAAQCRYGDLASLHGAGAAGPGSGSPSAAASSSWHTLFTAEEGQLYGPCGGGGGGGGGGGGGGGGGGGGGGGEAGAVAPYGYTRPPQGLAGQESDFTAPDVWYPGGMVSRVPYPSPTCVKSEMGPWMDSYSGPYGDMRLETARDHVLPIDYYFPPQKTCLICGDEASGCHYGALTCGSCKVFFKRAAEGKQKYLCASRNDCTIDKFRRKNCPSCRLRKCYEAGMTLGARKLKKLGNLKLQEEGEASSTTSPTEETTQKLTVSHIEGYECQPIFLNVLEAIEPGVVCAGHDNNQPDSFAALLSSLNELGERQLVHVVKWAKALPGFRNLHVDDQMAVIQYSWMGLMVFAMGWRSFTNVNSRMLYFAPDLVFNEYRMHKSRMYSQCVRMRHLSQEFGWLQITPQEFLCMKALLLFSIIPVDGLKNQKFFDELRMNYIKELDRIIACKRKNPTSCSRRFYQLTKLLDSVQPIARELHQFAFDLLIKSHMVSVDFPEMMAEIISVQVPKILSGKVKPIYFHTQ
Experimental: (§1) To a solution of wild type or LNCaP type mutant androgen receptor (AR) was added 3 nM radio-labeled Mibolerone and final concentration 1 μM of the compound. The mixture was incubated at 4° C. for 3 hours, and B (Bound) and F (Free) Mibolerones were separated by the dextran/charcoal method. The label count of B was measured and the inhibition rate of the compound was calculated.

[3] = biological target: T2, wild type androgen receptor (AR) (Homo sapiens, UniProt P10275); assay: AR-binding inhibition test, wild type (radio-labeled Mibolerone displacement); conditions: compound 1 μM; 3 nM radio-labeled Mibolerone; 4° C., 3 hours; dextran/charcoal method; read-out: Inhibitory rate (%) at 1 μM, wild type
T2 sequence (P10275 1-920): T1 sequence (P10275 1-920 T878A) with A878T
Experimental: as §1

mutant AR (W741C) = biological target: T3, mutant AR (W741C) (Homo sapiens, UniProt P10275, W742C); assay: AR transcription inhibition test (luciferase reporter in Cos-7 cells); type: cell-based; conditions: compound 1 μM, 0.1 μM DHT, luciferase activity after 24 hr, relative to control (0.1 μM DHT), read-out: Inhibitory rate (%) of mutant AR at 1 μM
T3 construct: expressed in transfected cells; host or cells: Cos-7
T3 sequence (P10275 1-920 W742C): T1 sequence (P10275 1-920 T878A) with W742C, A878T
Experimental: Cos-7 cells (5,000,000 cells) were inoculated to a flask, and incubated in a culture medium (DMEM+10% Dextran Charcoal (DCC)−Fetal Bovine Serum (FBS) and 2 mM glutamine) for 24 hours. Then, a vector DNA harboring mutant AR (W741C) and a vector DNA containing a luciferase gene bound at the downstream of an androgen responsive promoter were cotransfected by a liposome method. After 4 hr, the medium was changed and, after culture for 3 hr, DHT (dihydrotestosterone) at the final concentration of 0.1 μM and the compound at the final concentration of 1 μM were added. After further culture for 24 hr, the luciferase activity was measured, and the AR transcription inhibitory activity of the compound was examined.

Row | inhibition at 1 µM [2] | inhibition at 1 µM [3] | inhibition at 1 µM (mutant AR (W741C)) | Compound | inhibition at 1 µM [1] | Inhibitory rate (%) at 1 μM (PSA production suppression rate) [1]
1 | 75% | 66% | 32% | Cc1nn(Cc2ccc(C(N)=O)nc2)c(C)c1-c1ccc(C#N)c(Cl)c1 [Example 105, 5-{[4-(3-chloro-4-cyanophenyl)-3,5-dimethyl-1H-pyrazol-1-yl]methyl}pyridine-2-carboxamide] | 109% | –
2 | 79% | 49% | 38% | CNC(=O)c1ccc(Cn2nc(C)c(-c3ccc(C#N)c(Cl)c3)c2C)cn1 [Example 106, 5-{[4-(3-chloro-4-cyanophenyl)-3,5-dimethyl-1H-pyrazol-1-yl]methyl}-N-methylpyridine-2-carboxamide] | 110% | –
3 | 82% | 74% | 36% | Cc1nn(Cc2ccc(C(=O)NC3CC3)cc2)c(C)c1-c1ccc(C#N)c(Cl)c1 [Example 304, 4-{[4-(3-chloro-4-cyanophenyl)-3,5-dimethyl-1H-pyrazol-1-yl]methyl}-N-cyclopropylbenzamide] | 98.3% | –
4 | 73% | 70% | 72% | Cc1nn(Cc2ccc(C(=O)NC3CC3)nc2)c(C)c1-c1ccc(C#N)c(Cl)c1 [Example 310, 5-{[4-(3-chloro-4-cyanophenyl)-3,5-dimethyl-1H-pyrazol-1-yl]methyl}-N-cyclopropylpyridine-2-carboxamide] | 106% | –
5 | 29% | 29% | 17% | Cc1nn(Cc2ccc(C(N)=O)nc2)c(C)c1-c1ccc(C#N)c(C(F)(F)F)c1 [Example 311, 5-({4-[4-cyano-3-(trifluoromethyl)phenyl]-3,5-dimethyl-1H-pyrazol-1-yl}methyl)pyridine-2-carboxamide] | 85.8% | –
6 | 83% | 84% | 24% | Cc1nn(Cc2ccc(S(N)(=O)=O)cc2)c(C)c1-c1ccc(C#N)c(Cl)c1 [Example 322, 4-{[4-(3-chloro-4-cyanophenyl)-3,5-dimethyl-1H-pyrazol-1-yl]methyl}benzenesulfonamide] | 108% | –
7 | – | – | – | CC(O)(CS(=O)(=O)c1ccc(F)cc1)C(=O)Nc1ccc(C#N)c(C(F)(F)F)c1 (stereo not drawn) [bicartamide, reference compound] | – | 75.0%

Row | Compound | inhibition at 1 µM [2] | inhibition at 1 µM [3] | inhibition at 1 µM (mutant AR (W741C)) | inhibition at 1 µM [1] | Inhibitory rate (%) at 1 μM (PSA production suppression rate) [1]
8 | Cc1nn(Cc2cccc(C(N)=O)c2)c(C)c1-c1ccc(C#N)c(Cl)c1 [Example 68, 3-{[4-(3-chloro-4-cyanophenyl)-3,5-dimethyl-1H-pyrazol-1-yl]methyl}benzamide] | 82% | 76% | 31% | 95.4% | –
9 | Cc1nn(Cc2ccc(C(N)=O)cc2)c(C)c1-c1ccc(C#N)c(Cl)c1 [Example 69, 4-{[4-(3-chloro-4-cyanophenyl)-3,5-dimethyl-1H-pyrazol-1-yl]methyl}benzamide] | 80% | 88% | 19% | 107% | –
10 | Cc1nn(Cc2ccc(F)c(C(N)=O)c2)c(C)c1-c1ccc(C#N)c(Cl)c1 [Example 77, 5-{[4-(3-chloro-4-cyanophenyl)-3,5-dimethyl-1H-pyrazol-1-yl]methyl}-2-fluorobenzamide] | 68% | 78% | 92% | 102% | –
11 | Cc1nn(Cc2ccc(C(=O)NCC(C)(C)O)cc2)c(C)c1-c1ccc(C#N)c(Cl)c1 [Example 282, 4-{[4-(3-chloro-4-cyanophenyl)-3,5-dimethyl-1H-pyrazol-1-yl]methyl}-N-(2-hydroxy-2-methylpropyl)benzamide] | 54% | 58% | 28% | 80% | –
12 | Cc1nnc(-c2ccc(Cn3nc(C)c(-c4ccc(C#N)c(Cl)c4)c3C)cc2)o1 [Example 286, 2-chloro-4-{3,5-dimethyl-1-[4-(5-methyl-1,3,4-oxadiazol-2-yl)benzyl]-1H-pyrazol-4-yl}benzonitrile] | 89% | 85% | 67% | 107% | –
